Here are results for six compounds from patent publication US20240116845A1, “INDENE COMPOUNDS, PHARMACEUTICAL COMPOSITIONS THEREOF, AND THEIR THERAPEUTIC APPLICATIONS” (NucMito Pharmaceuticals Co., Ltd., priority 2021, published 2024).

By inhibition is commonly meant the drop in the measured response relative to a control, in per cent.

Assay type in all cases: cell-based
Assay [1] has as its system alpha-smooth muscle actin (α-SMA). Put plainly: Inhibition of TGF-β induced expression of alpha-smooth muscle actin in CFSC cells (western blot). The settings on record: compound at 10 μM, TGF-β (10 ng/mL), 24 hours. In a few lines: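 Read-out is percent decrease in α-SMA western-blot band intensity, β-actin also probed, relative to TGF-β-only cells. CFSC cells were co-treated for 24 h at 37 °C with 10 ng/mL TGF-β and 10 μM compound in serum-free DMEM.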
(In western blotting, separated proteins are transferred to a membrane and probed.)

The test system of a further assay is HepG2 (liver cancer). Put plainly: Antiproliferative activity, CCK-8 cell viability. The settings on record: Homo sapiens, 72 h, read-out: Inhibition of Cancerous Cells, HepG2; for inhibition at 3.3 µM: compound concentration of 3.3 μM; for inhibition at 10 µM: compound concentration of 10 μM; for inhibition at 30 µM: compound concentration of 30 μM. The gist of the method: (§1)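 Viability relative to DMSO controls came from CCK-8 absorbance at 450 nm after 72 h exposure at 37°C. Compound concentrations were 3.3, 10 or 30 μM, in DMEM plus 10% FBS. Results are categorised by inhibition level: at least 50%, 30 to under 50%, or under 30%.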

For assay [2], the system named is A549 (lung adenocarcinoma). Put plainly: Antiproliferative activity, CCK-8 cell viability. Conditions: Homo sapiens, 72 h, read-out: Inhibition of Cancerous Cells, A549; for inhibition at 3.3 µM: compound concentration of 3.3 μM; for inhibition at 10 µM: compound concentration of 10 μM; for inhibition at 30 µM: compound concentration of 30 μM.
The test system of a further assay is SW480 (colon cancer). Put plainly: Antiproliferative activity, CCK-8 cell viability. The settings on record: Homo sapiens, 72 h, read-out: Inhibition of Cancerous Cells, SW480; for inhibition at 3.3 µM: compound concentration of 3.3 μM; for inhibition at 10 µM: compound concentration of 10 μM; for inhibition at 30 µM: compound concentration of 30 μM. In a few lines:
as §1

Assay [3] relates to B16F10 (malignant melanoma). The assay can be described thus: Antiproliferative activity, CCK-8 cell viability. Conditions: Mus musculus, B16-F10, 72 h, read-out: Inhibition of Cancerous Cells, B16F10; for inhibition at 3.3 µM: compound concentration of 3.3 μM; for inhibition at 10 µM: compound concentration of 10 μM; for inhibition at 30 µM: compound concentration of 30 μM. In a few lines: as §1

For assay [4], the system named is A431 (epidermoid carcinoma). Put plainly: Antiproliferative activity, CCK-8 cell viability. The settings on record: Homo sapiens, A-431, 72 h, read-out: Inhibition of Cancerous Cells, A431; for inhibition at 3.3 µM: compound concentration of 3.3 μM; for inhibition at 10 µM: compound concentration of 10 μM; for inhibition at 30 µM: compound concentration of 30 μM. The gist of the method: as §1

The test system of a further assay is HeLa (cervical cancer). The assay can be described thus: Antiproliferative activity, CCK-8 cell viability. Conditions: Homo sapiens, 72 h, read-out: Inhibition of Cancerous Cells, HELA; for inhibition at 3.3 µM: compound concentration of 3.3 μM; for inhibition at 10 µM: compound concentration of 10 μM; for inhibition at 30 µM: compound concentration of 30 μM.
Assay [5] concerns MDA-MB-231 (breast cancer). Put plainly: Antiproliferative activity, CCK-8 cell viability. Conditions: Homo sapiens, 72 h, read-out: Inhibition of Cancerous Cells, MDA-MB-231; for inhibition at 3.3 µM: compound concentration of 3.3 μM; for inhibition at 10 µM: compound concentration of 10 μM; for inhibition at 30 µM: compound concentration of 30 μM. In a few lines: as §1

As to `CC1=C(CC(=O)O)c2cc(F)ccc2/C1=C\c1ccc(COc2ccc(F)cc2F)cc1` [Compound A15, 2-[(1Z)-1-({4-[(2,4-Difluorophenoxy)methyl]phenyl}methylidene)-5-fluoro-2-methyl-1H-inden-3-yl]acetic acid], the inhibition at 10 µM in assay [1] is at least 80%; in the assay on HepG2 (liver cancer) it was at least 50%; in assay [2], at least 50%; in the assay on SW480 (colon cancer), at least 50%; in assay [3], at least 50%; in assay [4], under 30%. Moreover, the inhibition at 10 µM (with HeLa (cervical cancer); in assay [5]) was at least 50% each time. The inhibition at 3.3 µM in the assay with HepG2 (liver cancer) was at least 50%; in assay [2], 30 to 50%; with SW480 (colon cancer), at least 50%; in assay [3], at least 50%; in assay [4], under 30%; in the assay with HeLa (cervical cancer) it was 30 to 50%. Further, the inhibition at 3.3 µM in assay [5] is at least 50%. In addition, the inhibition at 30 µM (in the assay on HepG2 (liver cancer); in assay [2]; with SW480 (colon cancer); in assay [3]; in assay [4]; with HeLa (cervical cancer)) was at least 50% throughout. Besides, in assay [5], the inhibition at 30 µM is at least 50%.
For the compound `CC1=C(CC(=O)N(C)O)c2cc(F)ccc2/C1=C\c1ccc(Oc2ccc(F)cc2)cc1` [Compound B2, 2-[(1Z)-5-Fluoro-1-{[4-(4-fluorophenoxy)phenyl]methylidene}-2-methyl-1H-inden-3-yl]-N-hydroxy-N-methylacetamide], the inhibition at 10 µM in assay [1] was at least 80%; with HepG2 (liver cancer), 30 to 50%; in assay [2] it was at least 50%; in the assay with SW480 (colon cancer), at least 50%; in assay [3], at least 50%; in assay [4] it was at least 50%. Also, the inhibition at 10 µM was 30 to 50% in the assay on HeLa (cervical cancer) and at least 50% in assay [5]. For the same compound, the inhibition at 3.3 µM is under 30% with HepG2 (liver cancer); at least 50% in assay [2]; at least 50% in the assay with SW480 (colon cancer); at least 50% in assay [3]; at least 50% in assay [4]; 30 to 50% in the assay with HeLa (cervical cancer). In addition, the inhibition at 3.3 µM in assay [5] was at least 50%. Moreover, the inhibition at 30 µM (in the assay with HepG2 (liver cancer); in assay [2]; in the assay with SW480 (colon cancer); in assay [3]; in assay [4]; in the assay with HeLa (cervical cancer)) was at least 50% each time. Besides, the inhibition at 30 µM in assay [5] is at least 50%.
Take `CC1=C(CC(=O)O)c2cc(F)ccc2/C1=C\c1ccc(Cc2ccc(F)cc2)cc1` [Compound A3, 2-[(1Z)-5-Fluoro-2-methyl-1-({4-[4-fluorobenzyl]phenyl}methylidene)-1H-inden-3-yl]acetic acid]: the inhibition at 10 µM in assay [1] is at least 80%; in the assay with HepG2 (liver cancer) it was at least 50%; in assay [2] it was at least 50%; with SW480 (colon cancer), at least 50%; in assay [3], 30 to 50%; in assay [4] it was at least 50%. The values for the inhibition at 10 µM (with HeLa (cervical cancer); in assay [5]) were 30 to 50% and at least 50%, respectively. For the same compound, the inhibition at 3.3 µM with HepG2 (liver cancer) was at least 50%; in assay [2], under 30%; with SW480 (colon cancer), at least 50%; in assay [3], under 30%; in assay [4] it was under 30%; in the assay with HeLa (cervical cancer), under 30%. In addition, the inhibition at 3.3 µM in assay [5] was at least 50%. Moreover, the inhibition at 30 µM (in the assay on HepG2 (liver cancer); in assay [2]; in the assay on SW480 (colon cancer); in assay [3]; in assay [4]; in the assay with HeLa (cervical cancer)) was at least 50% each time. The inhibition at 30 µM in assay [5] is at least 50%.
On to `CC1=C(CC(=O)O)c2cc(F)ccc2/C1=C\c1cccc(Oc2cccc(C(F)(F)F)c2)c1` [Compound D27, 2-[(1Z)-5-Fluoro-2-methyl-1-({3-[3-trifluoromethylphenoxy]phenyl}-methylidene)-1H-inden-3-yl]acetic acid], for which the inhibition at 10 µM in assay [1] was at least 80%; in the assay on HepG2 (liver cancer), at least 50%; in assay [2], 30 to 50%; in the assay with SW480 (colon cancer) it was at least 50%; in assay [3], 30 to 50%; in assay [4] it was at least 50%. In addition, the values for the inhibition at 10 µM (with HeLa (cervical cancer); in assay [5]) were 30 to 50% and at least 50%, respectively. The inhibition at 3.3 µM in the assay with HepG2 (liver cancer) was at least 50%; in assay [2] it was 30 to 50%; in the assay on SW480 (colon cancer) it was 30 to 50%; in assay [3] it was under 30%; in assay [4], under 30%; in the assay on HeLa (cervical cancer), under 30%. For the same compound, the inhibition at 3.3 µM in assay [5] was at least 50%. Moreover, the inhibition at 30 µM (in the assay on HepG2 (liver cancer); in assay [2]; with SW480 (colon cancer); in assay [3]; in assay [4]; in the assay on HeLa (cervical cancer)) was at least 50% each time. Besides, in assay [5], the inhibition at 30 µM was at least 50%.
Regarding `O=C(O)CC1=C/C(=C/c2ccc(Oc3ccc(F)cc3)cc2)c2ccc(F)cc21` [Compound D33, 2-[(1Z)-5-Fluoro-1-{[4-(4-fluorophenoxy)phenyl]methylidene}-1H-inden-3-yl]acetic acid], the inhibition at 10 µM was under 30% in assay [1]; at least 50% with HepG2 (liver cancer); 30 to 50% in assay [2]; at least 50% in the assay with SW480 (colon cancer); at least 50% in assay [3]; 30 to 50% in assay [4]. For the same compound, the inhibition at 10 µM in the assay with HeLa (cervical cancer) is under 30%; in assay [5], at least 50%. Further, the inhibition at 3.3 µM with HepG2 (liver cancer) is at least 50%; in assay [2] it was 30 to 50%; in the assay with SW480 (colon cancer), 30 to 50%; in assay [3], 30 to 50%; in assay [4], under 30%; in the assay on HeLa (cervical cancer), 30 to 50%. For the same compound, in assay [5], the inhibition at 3.3 µM was at least 50%. Moreover, the inhibition at 30 µM (in the assay with HepG2 (liver cancer); in assay [2]; with SW480 (colon cancer); in assay [3]; in assay [4]; with HeLa (cervical cancer)) was at least 50% in each case. For the same compound, the inhibition at 30 µM in assay [5] is at least 50%.
On to `CC1=C(CC(=O)O)c2cc(F)ccc2/C1=C\c1cccc(COc2ccc(F)cc2)c1` [Compound A6, 2-[(1Z)-5-Fluoro-1-({3-[(4-fluorophenoxy)methyl]phenyl}methylidene)-2-methyl-1H-inden-3-yl]acetic acid], for which the inhibition at 10 µM in assay [1] was at least 80%; with HepG2 (liver cancer), at least 50%; in assay [2], 30 to 50%; in the assay with SW480 (colon cancer), at least 50%; in assay [3], 30 to 50%; in assay [4], at least 50%. Also, the inhibition at 10 µM (with HeLa (cervical cancer); in assay [5]) was at least 50% in each case. Moreover, the inhibition at 3.3 µM is at least 50% in the assay on HepG2 (liver cancer); under 30% in assay [2]; under 30% with SW480 (colon cancer); under 30% in assay [3]; 30 to 50% in assay [4]; at least 50% in the assay on HeLa (cervical cancer). The inhibition at 3.3 µM in assay [5] is at least 50%. For the same compound, the inhibition at 30 µM (with HepG2 (liver cancer); in assay [2]; in the assay on SW480 (colon cancer); in assay [3]; in assay [4]; with HeLa (cervical cancer)) was at least 50% in each case. The inhibition at 30 µM in assay [5] was at least 50%.
